Here are results for one compound from article PMC9146984, “A Novel Proline-Rich Cathelicidin from the Alpaca Vicugna pacos with Potency to Combat Antibiotic-Resistant Bacteria: Mechanism of Action and the Functional Role of the C-Terminal Region” (Membranes, 2022).

The subject of series [1] is E. coli BL21 (DE3) Star cell extract, coupled transcription/translation of EGFP. In words: In vitro transcription/translation inhibition assay (cell-free EGFP synthesis). In kind it is biochemical, Escherichia coli. To be noted: EGFP fluorescence, 2 h, 30 °C; at least two independent experiments in triplicate; read-out: IC50, inhibition of in vitro protein synthesis in the E. coli cell-free system. The procedure: To investigate the effect of cathelicidins on the coupled transcription/translation process, the peptides were added to a cell-free protein synthesis (CFPS) reaction mix with a plasmid encoding enhanced green fluorescent protein (EGFP) variant (F64L, S65T, Q80R, F99S, M153T, and V163A) under control of the T7 promoter as described previously with some modifications. Briefly, the peptides were dissolved in 0.1% BSA in water. Bac7[1–22] was used as a positive control inhibitor. The fluorescence of the sample without inhibitor was set as the 100% value. The reaction proceeded for 2 h in 96-well v-bottom black polystyrene microplates in a plate shaker (30 °C, 1000 rpm). The fluorescence of the synthesized EGFP was measured with the microplate reader AF2200 (λExc = 488 nm, λEm = 510 nm; Eppendorf, Hamburg, Germany). The experimental data were obtained from at least two independent experiments performed in triplicate. Non-linear regression curves were generated using GraphPad Prism v.8.0.1 (GraphPad Software Inc., San Diego, CA, USA).

In another series the test system is S. aureus ATCC 29213. In words: Antimicrobial assay (MIC). The format is cell-based, Staphylococcus aureus. To be noted: Mueller-Hinton broth supplemented with 0.9% NaCl. On the procedure:
(§1) The reduction of resazurin to resorufin was measured.

The subject of a further series is S. aureus MDR CI 119. In words: Antimicrobial assay (MIC). The format is cell-based, Staphylococcus aureus. To be noted: Mueller-Hinton broth supplemented with 0.9% NaCl. On the procedure:
as §1

The next series in a line: Cytotoxicity (MTT assay). In kind it is cell-based, human. Particulars: human. The procedure:
Hemolytic activity of the peptides was tested against the fresh suspension of human red blood cells (hRBC) using the hemoglobin release assay as described previously. Two experiments were performed with the hRBC from blood samples of independent donors. The quantitative data were represented as average means with standard deviations. The colorimetric 3-(4,5-dimethylthiazol-2-yl)-2,5-diphenyltetrazolium bromide (MTT) dye reduction assay was used to determine the cytotoxicity of the peptides against transformed human embryonic kidney cells (HEK293T). 10^4 cells per well in Dulbecco’s modified Eagle’s medium (DMEM/F12) supplemented with 10% fetal bovine serum (FBS; Invitrogen, Waltham, MA, USA) were placed into 96-well plates and then cultured in the CO2-incubator (5% CO2, 37 °C). After the media were removed, the peptides were dissolved in 100 µL of the same medium and added to cell cultures at different final concentrations. 20 h later, 20 μL of MTT (5 mg/mL; Sigma, St. Louis, MO, USA) was added to each well, and the plates were incubated for 4 h at 37 °C. Then, the media were discarded and a 100 µL dimethyl sulfoxide-isopropanol mixture at a ratio of 1:1 (v/v) was added to each well to dissolve the crystallized formazan. The absorbance at 570 nm was measured by a microplate reader AF2200 (Eppendorf, Hamburg, Germany). The optical density in the wells containing cells cultured without the peptides was assumed to represent 100% cell viability. Two independent experiments were performed for each peptide.
A general note: Tetrazolium dyes change colour on reduction, which living cells bring about.

Where a SMILES comes first, the peptide text is derived from it. A value given as a limit tells only on which side of the number the result lay.

For `CC[C@H](C)[C@H](NC(=O)[C@H](CCCNC(=N)N)NC(=O)[C@@H](N)CCCNC(=N)N)C(=O)N[C@@H](CCCNC(=N)N)C(=O)N[C@@H](CCCNC(=N)N)C(=O)N1CCC[C@H]1C(=O)N[C@@H](CCCNC(=N)N)C(=O)N[C@@H](CC(C)C)C(=O)N1CCC[C@H]1C(=O)N[C@@H](CCCNC(=N)N)C(=O)N1CCC[C@H]1C(=O)N[C@@H](CCCNC(=N)N)C(=O)N[C@H](C(=O)N1CCC[C@H]1C(=O)N[C@@H](CCCNC(=N)N)C(=O)N1CCC[C@H]1C(=O)N[C@@H](CCCNC(=N)N)C(=O)N[C@H](C(=O)N1CCC[C@H]1C(=O)N1CCC[C@H]1C(=O)N[C@@H](CCCNC(=N)N)C(=O)N[C@H](C(=O)N1CCC[C@H]1C(=O)N[C@@H](CCCNC(=N)N)C(=O)N1CCC[C@H]1C(=O)N[C@H](C(=O)N[C@@H](CC(C)C)C(=O)N1CCC[C@H]1C(=O)N1CCC[C@H]1C(=O)N1CCC[C@H]1C(=O)N[C@@H](CCCNC(=N)N)C(=O)N[C@H](C(=O)N1CCC[C@H]1C(=O)N[C@@H](Cc1ccccc1)C(=O)N1CCC[C@H]1C(=O)N[C@@H](CCCNC(=N)N)C(=O)N[C@@H](Cc1ccccc1)C(=O)N1CCC[C@H]1C(=O)N[C@@H](CCCNC(=N)N)C(N)=O)C(C)C)C(C)C)[C@@H](C)CC)[C@@H](C)CC)C(C)C` [VicBac[1-39]] (H-RRIRRPRLPRPRVPRPRIPPRIPRPVLPPPRVPFPRFPR-NH2; N-terminus assumed), the half-maximal inhibitory concentration (IC50) in series [1] is 0.5 µM. For the same compound, the “MIC, S. aureus ATCC 29213” value in the series on S. aureus ATCC 29213 is recorded as greater than 32 µM. Further, the “MIC, S. aureus MDR CI 119” value against S. aureus MDR CI 119 is given as greater than 32 µM. In addition, the IC50 at 20 h in “Cytotoxicity (MTT assay)” was roughly 100 µM.

The IC50 is the concentration needed to halve the response being measured.
